Patent publication US5605929A, “Methods and compositions for inhibiting 5α-reductase activity” (priority 1995, dated 1997)
“And” between values parts separate entries of the source, which are not always exact repeats. Equal entries are not always repeated. Where two headings read alike, the source gives them in different places.

Tests used:
microsomal 5α-reductase = target: T1, microsomal 5α-reductase (Rattus norvegicus, UniProt P24008); test: Enzymatic assay of microsomal 5α-reductase (testosterone to 5α-DHT); type: biochemical
T1 construct: from the livers of adult Sprague-Dawley female rats; from tissue; host or cells: liver microsomes of adult female Sprague-Dawley rats
T1 sequence (P24008 1-259): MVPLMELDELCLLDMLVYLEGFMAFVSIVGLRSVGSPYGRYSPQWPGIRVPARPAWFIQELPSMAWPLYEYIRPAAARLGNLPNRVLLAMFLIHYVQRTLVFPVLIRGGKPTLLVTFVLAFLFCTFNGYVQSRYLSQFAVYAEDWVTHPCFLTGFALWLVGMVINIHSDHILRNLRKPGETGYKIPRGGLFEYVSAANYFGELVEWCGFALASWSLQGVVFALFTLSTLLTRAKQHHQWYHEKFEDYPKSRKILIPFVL
Method: (§1) Microsomes were prepared at 4° C. from a buffered 0.32M-sucrose homogenate of human liver and from the livers of adult Sprague-Dawley female rats by differential centrifugation as described previously (Liang et al., 1990), and were used in the assay of 5α-reductase activity. In some experiments, microsomes were solubilized with 0.1% polyoxyethylene ether W-1 as described previously (Liang et al., 1990), except for the substitution of polyoxyethylene ether W-1 for Lubrol-WX.

[1] = test system: 17β-steroid dehydrogenase; test: 4-Androstenedione formation from [3H]testosterone by PC-3 cells (17β-steroid dehydrogenase); type: cell-based, human
[2] = test system: forehead sebum production; test: Forehead sebum production (L/R ratio), human male; type: in vivo
Method: A volunteer was used to test and analyze sebum production from the forehead region. The forehead was washed thoroughly by soap twice and cleaned by 70% isopropyl alcohol twice. Sebum production was measured 30 to 60 minutes later by a sebum meter (Courage/Khazaka Electronic GmbH, Germany). The sebum meter tape probe (7 mm×8 mm) covered 56 mm^2 area in each measurement. Ten measurements were made within the 4 cm square area (16 cm^2) located at the middle of the left or right side forehead between the eyebrow and the hair line.
The sebum meter detected the difference in the transparency of the tape before and after the tape was placed on the forehead for 30 seconds and expressed the difference in an arbitrary number (S-value) between 0 to 300 (or higher). S-values of sebum accumulated on the foreheads of men are usually 200 to 300.

[3] = test system: Human Prostatic Cancer Cells; test: Cell morphology during 2 hour incubation; type: cell-based
[4] = target: T2, 5α-Reductase of Rat Liver Microsomes (Rattus norvegicus, UniProt P24008)
T2 sequence (P24008 1-259): T1 sequence (P24008 1-259)

[5] = test system: UDP-glucuronic acid:5α-DHT glucuronosyl transferase; conditions: 10 to 40 μM
[6] = test system: human liver microsomes 5α-reductase; conditions: vs rat liver microsomes
Method: Briefly, the binding assay solution, in a final volume of 0.15 ml, contained microsomes (2-20 μg of protein), 0.08 μCi of [^3 H]4-MA, 0.1 mM-NADPH, 1 mM-dithiothreitol and 50 mM-potassium phosphate, pH 7.0, with or without the indicated amount of a lipid or an inhibitor preparation. Lipids were dissolved in ethanol and added in 1-5 μl volumes. Control tubes received the same amount of ethanol. After incubation at 0° C. for 1 h, the [^3 H]4-MA bound to microsomes was determined by collecting microsomes on a Whatman GF/1F glass fibre filter and washing with 10 ml of 20 mM-potassium phosphate, pH 7.0, containing 0.01% CHAPS to remove unbound [^3 H]4-MA.
as §1

[7] = ethanol solution
LNCaP = test: cells; conditions: Homo sapiens, read-out: 5α-DHT formed (% of control)
[8] = target: T2, 5α-Reductase of Rat Liver Microsomes; test: biochemical; conditions: for Ki: apparent Ki values for [^3 H]4-MA
[9] = NADPH oxidation in presence of microsomes
[10] = test system: prostate and preputial organ; test: Catechins ip 7 days, large rats; type: in vivo, rat
Method: Male Sprague Dawley rats, 172±20 g body weight, were used. Each group had 5 rats. […] The control rats received 0.3 ml of 30% ethanol.

[11] = target: T3, HIV-1 reverse transcriptase (Human immunodeficiency virus type 1 group M subtype B, UniProt P04585); conditions: cited from earlier work
T3 construct: HIV-1 reverse transcriptase

[12] = read-out: % Inhibition of [^3 H]4-MA binding

CCCCC/C=C\C/C=C\C/C=C\CCCCC(=O)O [γ-Linolenic acid, γ-linolenic acid]
competition with testosterone or NADPH (microsomal 5α-reductase): did not appear to compete with testosterone or NADPH
Km (microsomal 5α-reductase; 5 μM γ-LA, 2.0 without, read-out: apparent Km value for NADPH): 3.1 µM
Vmax (microsomal 5α-reductase; 5 μM γ-LA, 7.5 without): 2.8 pmol 5α-DHT formed/mg protein/15 min
Km (microsomal 5α-reductase; read-out: apparent Km value for testosterone, 5 μM γ-LA, 2.4 without): 4.5 µM
4-Androstendione formed (% of control) ([1]; 1 μM): 102 ± 6 % of control
4-Androstendione formed (% of control) ([1]; 5 μM): 110 ± 1 % of control
4-Androstendione formed (% of control) ([1]; 20 μM): 99 ± 2 % of control
effect on metabolism of testosterone to 4-androstenedione (17β-steroid dehydrogenase) ([1]; words): did not affect
L/R sebum ratio at end of treatment ([2]; 20 mg twice a day, 6 days): 0.22
L/R sebum ratio recovered after treatment stopped ([2]; 16 days after stop): 1.20±0.14
visible change in cell morphology [3]: did not produce any visible
extent of inhibition by 10 μM γ-LA [4]: 93% and 52% and 88%
inhibition before removal of free γ-LA [4]: 78%
maximal binding of [^3 H]4-MA [4]: 0.45 pmol/10 μg protein and 0.40 pmol/10 μg protein
onset of inhibition [4]: within a minute
inhibition after microsomes reisolated to remove free γ-LA ([4]; reversibility test): 63%
effect on UDP-glucuronic acid:5α-DHT glucuronosyl transferase [5]: did not affect
inhibition of NADPH-dependent [^3 H]4-MA binding [6]: to the same degree as in experiments with rat liver microsomes
oxidation products by TLC ([7]; 5 weeks of storage): two additional more polar products
changes of the compound by TLC ([7]; refrigerated for 3 weeks): no detectable changes
activity at 50 µM (LNCaP): 27%
activity at 100 µM (LNCaP): 9 ± 4%
Ki ([8]; γ-LA 5 μM): 20 nM
Ki ([8]; γ-LA 10 μM): 40 nM
inhibition at 5 µM [8, 12]: 30%
inhibition at 10 µM [8, 12]: 50 ± 2%
inhibition at 40 µM [8, 12]: 83 ± 12%
inhibition at 200 µM [8, 12]: 96 ± 2%

O=C(O[C@@H]1Cc2c(O)cc(O)cc2O[C@@H]1c1cc(O)c(O)c(O)c1)c1cc(O)c(O)c(O)c1 [EGCG, (-)Epigallocatechin-3-gallate]
NADPH oxidation [9]: did not induce NADPH oxidation
body weight decrease ([10]; 15 mg ip/day, 7 days): about 15%
coagulating gland weight ([10]; 15 mg ip/day, 7 days): 34 % of organ weight in normal rats
dorsolateral prostate weight ([10]; 15 mg ip/day, 7 days): 46 % of organ weight in normal rats
kidney weight ([10]; 15 mg ip/day, 7 days): 74 % of organ weight in normal rats
preputial gland weight ([10]; 15 mg ip/day, 7 days): 35 % of organ weight in normal rats
seminal vesicle weight ([10]; 15 mg ip/day, 7 days): 41 % of organ weight in normal rats
testis weight ([10]; 15 mg ip/day, 7 days): 84 % of organ weight in normal rats
ventral prostate weight ([10]; 15 mg ip/day, 7 days): 46 % of organ weight in normal rats
final body weight ([10]; 15 mg ip/day, 7 days, normal 232±10 g): 147 ± 14 g
final body weight reduction vs normal rats ([10]; end of study): about 36%
IC50 [11]: 40 nM
